Measurements as given in patent publication US8741834B2, “Dipeptoid prodrugs and the use thereof” (Bayer Intellectual Property GmbH, priority 2008, dated 2014).
Structures can show the parent of a compound that is named as a salt.

Assays:
[1] = Determination of the solubility in 5% strength aqueous dextrose solution; type: physicochemical; conditions: saline or isotonic, thermodynamic from solid, room temperature
Experimental: The test substance is suspended in 5% strength aqueous dextrose solution. This suspension is shaken at room temperature for 24 h. After ultracentrifugation at 224 000 g for 30 min, the supernatant is diluted with DMSO and analysed by HPLC. A two-point calibration plot of the test compound in DMSO is used for quantification.
Agilent 1100 with DAD (G1315A), quat. Pump (G1311A), autosampler CTC HTS PAL, degasser (G1322A) and column thermostat (G1316A); column: Phenomenex Gemini C18, 5 μm, 50 mm×2 mm; temperature: 40° C.; eluent A: water/phosphoric acid pH 2, eluent B: acetonitrile; flow rate: 0.7 ml/min; gradient: 0-0.5 min 85% A, 15% B; ramp 0.5-3 min 10% A, 90% B; 3-3.5 min 10% A, 90% B; ramp 3.5-4 min 85% A, 15% B; 4-5 min 85% A, 15% B.
Agilent 1100 with DAD (G1315A), quat. pump (G1311A), autosampler CTC HTS PAL, degasser (G1322A) and column thermostat (G1316A); column: VDSoptilab Kromasil 100 C18, 3.5 μm, 60 mm×2.1 mm; temperature: 30° C.; eluent A: water+5 ml of perchloric acid/liter, eluent B: acetonitrile; flow rate: 0.75 ml/min; gradient: 0-0.5 min 98% A, 2% B; ramp 0.5-4.5 min 10% A, 90% B; 4.5-6 min 10% A, 90% B; ramp 6.5-6.7 min 98% A, 2% B; 6.7-7.5 min 98% A, 2% B.

[2] = Stability in buffer at various pH values; type: physicochemical
Experimental: 0.3 mg of the test substance is weighed into a 2 ml HPLC vial and 0.5 ml of acetonitrile or acetonitrile/DMSO (9:1) is added. The substance is dissolved by putting the sample vessel in an ultrasonic bath for about 10 seconds. Then 0.5 ml of the respective buffer solution is added, and the sample is again treated in the ultrasonic bath.
pH 2: 0.03 mol of citric acid, 0.061 mol of sodium chloride and 0.0082 mol of hydrochoric acid ad 1 liter of water;
pH 4: 1 liter of Millipore water is adjusted to pH 4.0 with 1 N hydrochloric acid;
pH 5: 0.096 mol of citric acid and 0.2 mol of sodium hydroxide ad 1 liter of water;
pH 6: 0.06 mol of citric acid and 0.16 mol of sodium hydroxide ad 1 liter of water;
pH 7.4: 90.0 g of sodium chloride, 13.61 g of potassium dihydrogen phosphate and 83.35 g of 1 N sodium hydroxide solution are made up to 1 liter with water; this solution is then further diluted 1:10 with Millipore water.
pH 8: 0.013 mol of borax and 0.021 mol of hydrochloric acid ad 1 liter of water.
5 μl portions of the test solution are analyzed by HPLC for their content of unchanged test substance, and of active substance (A) formed, every hour over a period of 24 hours at 37° C. The percentage areas of the appropriate peaks are used for quantification.
The ratios of the peak areas (F) at the respective time points in relation to the peak areas at the starting time are shown in Table 2 for representative exemplary embodiments: […]

[3] = i.v. pharmacokinetics in Wistar rats; type: in vivo; conditions: after i.v. administration
Experimental: (§1) On the day before administration of the substance, a catheter for obtaining blood is implanted in the jugular vein of the experimental animals (male Wistar rats, body weight 200-250 g) under Isofluran® anesthesia.
(§2) On the day of the experiment, a defined dose of the test substance is administered as solution into the tail vein using a Hamilton® glass syringe (bolus administration, duration of administration <10 s). Blood samples (8-12 time points) are taken through the catheter sequentially over the course of 24 h after administration of the substance. Plasma is obtained by centrifuging the samples in heparinized tubes. Acetonitrile is added to a defined plasma volume per time point to precipitate proteins. After centrifugation, test substance and, where appropriate, known cleavage products of the test substance in the supernatant are determined quantitatively using a suitable LC/MS-MS method.
The measured plasma concentrations are used to calculate pharmacokinetic parameters of the test substance and of the active ingredient compound (A) liberated therefrom, such as AUC, Cmax, T1/2 (half-life) and CL (clearance).**

[4] = Oral pharmacokinetics in Wistar rats; type: in vivo; conditions: after oral administration
Experimental: as §1
as §2, with “stomach by gavage.” for “tail vein using a Hamilton® glass syringe (bolus administration, duration of administration <10 s).”
The measured plasma concentrations are used to calculate pharmacokinetic parameters of the test substance and of the active ingredient compound (A) liberated therefrom, such as AUC, Cmax, T1/2 (half-life).

[5] = system: spontaneously hypertensive (SH rats); test: Blood pressure and heart rate measurements on awake rats; type: in vivo, rat; conditions: per oral administration of 3 mg/kg
Experimental: Awake rats which are spontaneously hypertensive (SH rats) and which carry an internal transmitter capable of continual measurement both of blood pressure and also heart rate (telemetric capture of hemodynamic parameters) are administered test substances orally in various doses. Subsequently, blood pressure and heart rate, and their changes, are recorded over 24 hours.

Row | SMILES | solubility thermodynamic at 24 h [1] | % test substance after 4 h [F(t = 4 h) × 100/F(t = 0 h)] ([2]; pH 4, 37° C.) | % test substance after 24 h [F(t = 24 h) × 100/F(t = 0 h)] ([2]; pH 4, 37° C.) | % test substance after 4 h [F(t = 4 h) × 100/F(t = 0 h)] ([2]; pH 5, 37° C.) | % test substance after 24 h [F(t = 24 h) × 100/F(t = 0 h)] ([2]; pH 5, 37° C.) | % test substance after 4 h [F(t = 4 h) × 100/F(t = 0 h)] ([2]; pH 6, 37° C.) | % test substance after 24 h [F(t = 24 h) × 100/F(t = 0 h)] ([2]; pH 6, 37° C.) | % test substance after 4 h [F(t = 4 h) × 100/F(t = 0 h)] ([2]; pH 7.4, 37° C.) | % test substance after 24 h [F(t = 24 h) × 100/F(t = 0 h)] ([2]; pH 7.4, 37° C.) | detectability of the test substance in plasma [3] | detectability of the test substance in plasma [4] | Heart rate reduction (maximum lowering of heart rate) [5] | solubility at 24 h ([1]; 5% aqueous dextrose solution)
1 | C[C@H](N)C(=O)N[C@@H](C)C(=O)OC[C@H](COc1ccc(-c2c(C#N)c(N)nc(SCc3coc(-c4ccc(Cl)cc4)n3)c2C#N)cc1)OC(=O)[C@H](C)NC(=O)[C@H](C)N [Example 33, (2S)-3-{4-[2-Amino-6-({[2-(4-chlorophenyl)-1,3-oxazol-4-yl]methyl}sulfanyl)-3,5-dicyanopyridin-4-yl]phenoxy}propane-1,2-diyl(2S,2′S)-bis(2-{[(2S)-2-aminopropanoyl]amino}propanoate)dihydrochloride] | 620 µg/mL | 100% | 100% | 100% | 97% | 78% | 28% | 29% | 0% | no longer detectable in plasma even at the first measurement point | no longer detectable in plasma even at the first measurement point | 10% | –
2 | C[C@H](NC(=O)CCN)C(=O)OC[C@H](COc1ccc(-c2c(C#N)c(N)nc(SCc3coc(-c4ccc(Cl)cc4)n3)c2C#N)cc1)OC(=O)[C@H](C)NC(=O)CCN [Example 32, (2S)-3-{4-[2-Amino-6-({[2-(4-chlorophenyl)-1,3-oxazol-4-yl]methyl}sulfanyl)-3,5-dicyanopyridin-4-yl]phenoxy}propane-1,2-diyl (2S,2′S)-bis{2-[(3-aminopropanoyl)amino]propanoate}dihydrochloride] | – | 100% | 100% | 100% | 100% | 99% | 98% | 96% | 81% | no longer detectable in plasma even at the first measurement point | – | 10% | –
3 | N#Cc1c(N)nc(SCc2coc(-c3ccc(Cl)cc3)n2)c(C#N)c1-c1ccc(OC[C@H](O)CO)cc1 [Example 8A, 2-Amino-6-({[2-(4-chlorophenyl)-1,3-oxazol-4-yl]methyl}sulfanyl)-4-(4-{[(2R)-2,3-dihydroxypropyl]oxy}phenyl)pyridine-3,5-dicarbonitrile] | – | – | – | – | – | – | – | – | – | – | – | 10% | < 1.2 µg/mL
